Test results: ChEMBL document CHEMBL1201862, “PubChem BioAssay data set” (2004)
The source made the active and inactive calls.

Legend:
[1] = target: T1, Sentrin-specific protease 8 (Homo sapiens, UniProt Q96LD8); type: functional
T1 sequence (Q96LD8 whole entry): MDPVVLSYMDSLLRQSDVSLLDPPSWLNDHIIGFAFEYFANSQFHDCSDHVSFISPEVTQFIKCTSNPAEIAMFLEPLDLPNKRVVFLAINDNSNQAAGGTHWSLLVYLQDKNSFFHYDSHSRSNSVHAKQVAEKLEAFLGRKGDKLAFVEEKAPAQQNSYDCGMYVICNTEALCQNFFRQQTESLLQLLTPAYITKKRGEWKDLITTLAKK

[2] = target: T1, Sentrin-specific protease 8; type: functional; remark: listed apart in the source
[3] = target: T2, Adenosylmethionine-8-amino-7-oxononanoate aminotransferase (Mycobacterium tuberculosis, UniProt P9WQ81); test: Mycobacterium tuberculosis BioA enzyme inhibitor Measured in Biochemical System Using Plate Reader - 2163-02_Inhibitor_Dose_CherryPick_Activity.; type: functional, Mycobacterium tuberculosis UT205
T2 sequence (P9WQ81 whole entry): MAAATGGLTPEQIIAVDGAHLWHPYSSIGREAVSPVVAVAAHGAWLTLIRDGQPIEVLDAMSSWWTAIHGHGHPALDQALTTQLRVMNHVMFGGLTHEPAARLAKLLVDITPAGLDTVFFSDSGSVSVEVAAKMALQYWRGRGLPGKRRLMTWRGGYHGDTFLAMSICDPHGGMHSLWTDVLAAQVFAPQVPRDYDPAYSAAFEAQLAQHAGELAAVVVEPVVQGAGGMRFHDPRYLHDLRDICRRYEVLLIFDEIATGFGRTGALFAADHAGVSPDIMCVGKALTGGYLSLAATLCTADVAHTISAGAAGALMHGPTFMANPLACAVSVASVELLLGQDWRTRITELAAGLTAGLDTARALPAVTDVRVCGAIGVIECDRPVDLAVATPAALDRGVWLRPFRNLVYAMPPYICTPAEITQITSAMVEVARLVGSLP

[4] = Luminescence Cell-Based Dose Retest to Confirm Inhibitors of Cancer Stem Cells. [Related pubchem assays (depositor defined):AID2717, AID2721]; type: functional; details: Homo sapiens
[5] = target: T3, Microphthalmia-associated transcription factor (Homo sapiens, UniProt O75030); test: reducers of TRPM1 reporter luminescence, concentration series – cell-based, SK-MEL-5, cherry-picked, set 3, MITF inhibitor project, dose response (AID 493073); type: functional;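 also: SK-MEL-5 melanoma cells with luciferase driven by the MITF target TRPM1 promoter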
T3 sequence (O75030 whole entry): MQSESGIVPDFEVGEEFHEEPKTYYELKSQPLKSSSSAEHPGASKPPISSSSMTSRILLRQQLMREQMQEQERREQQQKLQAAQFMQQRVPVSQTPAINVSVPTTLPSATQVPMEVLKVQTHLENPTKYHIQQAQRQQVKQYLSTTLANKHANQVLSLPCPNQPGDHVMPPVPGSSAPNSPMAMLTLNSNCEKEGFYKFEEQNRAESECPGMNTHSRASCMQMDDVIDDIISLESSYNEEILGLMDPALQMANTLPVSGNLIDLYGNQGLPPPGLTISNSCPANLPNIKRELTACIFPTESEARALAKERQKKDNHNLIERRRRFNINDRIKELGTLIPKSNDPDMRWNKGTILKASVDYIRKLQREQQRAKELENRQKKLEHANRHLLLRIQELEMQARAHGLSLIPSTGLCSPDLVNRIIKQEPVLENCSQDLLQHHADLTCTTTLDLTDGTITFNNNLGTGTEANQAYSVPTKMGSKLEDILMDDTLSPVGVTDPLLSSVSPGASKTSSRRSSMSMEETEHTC

[6] = Fluorescence-based cell-based high throughput dose response assay for inhibitors of the interaction of nucleotide-binding oligomerization domain containing 2 (NOD2) and the receptor-interacting serine-threonine kinase 2 (RIPK2).; type: functional; details: Homo sapiens
[7] = viability loss in HeLa cells – cytotoxicity control for MgcRacGAP inhibitor project, dose response (AID 624300); type: functional
[8] = target: T4, Rac GTPase-activating protein 1 (Homo sapiens, UniProt Q9H0H5); test: blockers of MgcRacGAP-driven Rac1 GTP hydrolysis – biochemical, ADP Hunter fluorescence, primary and confirmatory, confirmation (AID 624330); type: functional
T4 sequence (Q9H0H5 whole entry): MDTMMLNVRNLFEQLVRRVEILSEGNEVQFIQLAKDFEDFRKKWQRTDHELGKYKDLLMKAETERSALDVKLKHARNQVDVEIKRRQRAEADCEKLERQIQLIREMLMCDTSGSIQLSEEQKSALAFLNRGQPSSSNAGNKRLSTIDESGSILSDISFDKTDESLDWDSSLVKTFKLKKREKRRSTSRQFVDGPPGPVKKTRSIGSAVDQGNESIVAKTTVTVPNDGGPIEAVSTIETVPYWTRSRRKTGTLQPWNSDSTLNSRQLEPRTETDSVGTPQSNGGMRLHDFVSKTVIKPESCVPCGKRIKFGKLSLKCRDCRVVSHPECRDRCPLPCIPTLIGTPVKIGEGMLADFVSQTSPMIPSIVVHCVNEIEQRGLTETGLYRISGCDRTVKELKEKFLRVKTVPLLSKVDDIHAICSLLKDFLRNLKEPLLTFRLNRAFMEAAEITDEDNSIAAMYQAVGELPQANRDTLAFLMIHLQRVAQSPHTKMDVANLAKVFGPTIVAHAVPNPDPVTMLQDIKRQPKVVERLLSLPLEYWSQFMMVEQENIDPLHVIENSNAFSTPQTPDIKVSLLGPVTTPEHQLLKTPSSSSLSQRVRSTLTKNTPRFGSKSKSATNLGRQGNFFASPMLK

[9] = target: T5, Replicative DNA helicase DnaB (Mycobacterium tuberculosis, UniProt P9WMR3); test: DnaB intein splicing inhibitors, dose response, biochemical, cell-free fluorescence (AID 449749); type: functional
T5 sequence (P9WMR3 whole entry): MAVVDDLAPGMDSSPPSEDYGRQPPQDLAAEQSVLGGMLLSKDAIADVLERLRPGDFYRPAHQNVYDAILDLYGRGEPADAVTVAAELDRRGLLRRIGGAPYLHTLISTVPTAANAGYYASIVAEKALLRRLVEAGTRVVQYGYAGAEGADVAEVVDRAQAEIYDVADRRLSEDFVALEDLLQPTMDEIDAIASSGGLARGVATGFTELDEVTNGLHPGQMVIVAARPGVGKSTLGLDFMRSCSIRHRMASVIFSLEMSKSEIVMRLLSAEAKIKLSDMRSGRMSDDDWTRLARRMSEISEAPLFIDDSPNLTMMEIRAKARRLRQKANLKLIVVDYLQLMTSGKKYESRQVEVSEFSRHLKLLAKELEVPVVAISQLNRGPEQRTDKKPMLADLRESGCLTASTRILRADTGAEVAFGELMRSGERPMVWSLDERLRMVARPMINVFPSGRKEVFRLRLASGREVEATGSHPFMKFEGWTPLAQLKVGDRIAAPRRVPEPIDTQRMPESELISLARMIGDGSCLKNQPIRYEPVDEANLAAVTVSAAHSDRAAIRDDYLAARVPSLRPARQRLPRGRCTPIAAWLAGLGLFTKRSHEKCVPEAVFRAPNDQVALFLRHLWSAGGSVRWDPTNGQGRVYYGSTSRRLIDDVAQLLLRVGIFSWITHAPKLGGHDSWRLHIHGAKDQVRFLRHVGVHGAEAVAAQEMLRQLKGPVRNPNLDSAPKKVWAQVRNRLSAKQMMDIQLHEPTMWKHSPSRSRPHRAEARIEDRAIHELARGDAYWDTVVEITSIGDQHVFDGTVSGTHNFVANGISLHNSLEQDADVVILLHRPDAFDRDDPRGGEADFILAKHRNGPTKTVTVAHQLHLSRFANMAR

Protein RecA = target: T6, Protein RecA (Mycobacterium tuberculosis, UniProt P9WHJ3); test: Fluorescence Cell-Free Homogeneous Dose Retest to Identify Inhibitors of RecA-Intein Splicing Activity. [Related pubchem assays (depositor defined):AID2097, AID2223, AID489010, AID492950]; type: functional
T6 sequence (P9WHJ3 whole entry): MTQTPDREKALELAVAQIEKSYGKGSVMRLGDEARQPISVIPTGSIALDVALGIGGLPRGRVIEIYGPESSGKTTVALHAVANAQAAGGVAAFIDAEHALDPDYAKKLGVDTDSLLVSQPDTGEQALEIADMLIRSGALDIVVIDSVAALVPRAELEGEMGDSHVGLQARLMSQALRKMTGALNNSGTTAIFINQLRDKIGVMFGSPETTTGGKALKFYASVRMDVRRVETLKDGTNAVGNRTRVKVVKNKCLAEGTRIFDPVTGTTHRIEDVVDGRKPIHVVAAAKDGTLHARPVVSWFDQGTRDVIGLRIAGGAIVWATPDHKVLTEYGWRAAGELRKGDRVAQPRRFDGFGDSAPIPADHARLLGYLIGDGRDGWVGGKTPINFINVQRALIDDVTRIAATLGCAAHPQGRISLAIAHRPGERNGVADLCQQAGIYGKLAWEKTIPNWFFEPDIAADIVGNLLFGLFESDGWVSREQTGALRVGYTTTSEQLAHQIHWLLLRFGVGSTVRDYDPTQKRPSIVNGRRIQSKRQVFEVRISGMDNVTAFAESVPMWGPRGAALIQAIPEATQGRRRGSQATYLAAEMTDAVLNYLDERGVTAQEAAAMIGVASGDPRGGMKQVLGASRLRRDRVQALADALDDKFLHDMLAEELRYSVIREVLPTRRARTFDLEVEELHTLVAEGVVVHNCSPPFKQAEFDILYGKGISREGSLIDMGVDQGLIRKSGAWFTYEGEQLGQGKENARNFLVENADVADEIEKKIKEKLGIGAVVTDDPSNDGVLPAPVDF

Genome polyprotein = Genome polyprotein (dengue virus type 2, UniProt P29990); test: flavivirus cap methylation enzyme inhibition – biochemical, confirmation dose response, primary screen (AID 588689); type: functional
Genome polyprotein, sequence (P29990 2492-3391 limits assumed): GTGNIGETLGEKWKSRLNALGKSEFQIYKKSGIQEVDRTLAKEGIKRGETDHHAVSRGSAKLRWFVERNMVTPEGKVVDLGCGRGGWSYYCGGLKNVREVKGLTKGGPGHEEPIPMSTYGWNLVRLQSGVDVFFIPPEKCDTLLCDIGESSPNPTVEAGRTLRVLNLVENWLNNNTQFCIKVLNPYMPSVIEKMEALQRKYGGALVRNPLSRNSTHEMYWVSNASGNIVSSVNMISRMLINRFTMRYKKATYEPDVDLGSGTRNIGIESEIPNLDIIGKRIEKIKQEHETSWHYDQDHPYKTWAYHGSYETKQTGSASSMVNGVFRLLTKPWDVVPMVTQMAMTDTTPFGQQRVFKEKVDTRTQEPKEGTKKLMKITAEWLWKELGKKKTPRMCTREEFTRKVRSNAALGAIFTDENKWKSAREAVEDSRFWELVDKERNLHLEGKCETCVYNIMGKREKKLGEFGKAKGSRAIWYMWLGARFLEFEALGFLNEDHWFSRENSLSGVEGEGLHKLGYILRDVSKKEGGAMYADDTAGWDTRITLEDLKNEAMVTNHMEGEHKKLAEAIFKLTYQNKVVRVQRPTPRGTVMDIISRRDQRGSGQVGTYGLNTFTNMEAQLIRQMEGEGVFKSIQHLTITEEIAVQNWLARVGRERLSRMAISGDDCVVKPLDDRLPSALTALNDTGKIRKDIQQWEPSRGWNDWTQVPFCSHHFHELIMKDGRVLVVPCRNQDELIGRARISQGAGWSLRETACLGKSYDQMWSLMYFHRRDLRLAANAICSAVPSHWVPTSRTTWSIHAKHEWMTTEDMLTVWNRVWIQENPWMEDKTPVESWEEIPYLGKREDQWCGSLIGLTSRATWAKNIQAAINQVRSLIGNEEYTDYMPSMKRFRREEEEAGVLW

Cytochrome P450 2D6 = Cytochrome P450 2D6 (Homo sapiens, UniProt P10635);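 also: CYP2D6 member of a cytochrome P450 panel assay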
Cytochrome P450 2D6, sequence (P10635 whole entry): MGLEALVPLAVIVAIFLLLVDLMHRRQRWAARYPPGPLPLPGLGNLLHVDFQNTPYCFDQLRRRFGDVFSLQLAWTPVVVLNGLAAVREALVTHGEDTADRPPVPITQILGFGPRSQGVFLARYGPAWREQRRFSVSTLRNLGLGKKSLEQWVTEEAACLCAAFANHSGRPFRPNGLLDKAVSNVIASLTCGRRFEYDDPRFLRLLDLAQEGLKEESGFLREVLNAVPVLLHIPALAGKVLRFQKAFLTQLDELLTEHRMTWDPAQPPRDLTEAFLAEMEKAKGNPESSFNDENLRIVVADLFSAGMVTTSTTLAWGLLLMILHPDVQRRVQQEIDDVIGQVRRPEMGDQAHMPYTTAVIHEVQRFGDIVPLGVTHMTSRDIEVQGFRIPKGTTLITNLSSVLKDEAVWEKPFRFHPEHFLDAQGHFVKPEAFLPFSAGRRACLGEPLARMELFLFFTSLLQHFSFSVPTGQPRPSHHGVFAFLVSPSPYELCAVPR

Cytochrome P450 1A2 = target: T7, Cytochrome P450 1A2 (Homo sapiens, UniProt P05177);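 also: PubChem cytochrome P450 panel assay, CYP1A2 panel member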
T7 sequence (P05177 whole entry): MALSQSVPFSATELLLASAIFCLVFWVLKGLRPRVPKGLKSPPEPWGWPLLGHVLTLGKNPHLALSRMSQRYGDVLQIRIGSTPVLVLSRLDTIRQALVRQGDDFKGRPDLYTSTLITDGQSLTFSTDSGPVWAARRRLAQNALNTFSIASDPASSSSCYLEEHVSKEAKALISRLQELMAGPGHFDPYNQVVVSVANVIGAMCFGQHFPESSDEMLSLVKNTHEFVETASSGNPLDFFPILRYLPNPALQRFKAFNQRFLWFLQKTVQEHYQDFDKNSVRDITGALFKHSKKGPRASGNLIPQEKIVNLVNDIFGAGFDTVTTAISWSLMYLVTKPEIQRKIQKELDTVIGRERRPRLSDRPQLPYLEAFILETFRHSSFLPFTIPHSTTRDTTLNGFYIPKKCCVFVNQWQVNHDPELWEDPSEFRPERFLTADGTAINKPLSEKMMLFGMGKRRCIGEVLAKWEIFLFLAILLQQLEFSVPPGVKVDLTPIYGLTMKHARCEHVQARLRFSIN

[10] = target: T8, Low molecular weight phosphotyrosine protein phosphatase (Homo sapiens, UniProt P24666); type: functional; details: read-out: IC50_Mean;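 also: Dose-response confirmation assay measuring inhibition of LMPTP enzyme activity by fluorescence intensity read-out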
T8 sequence (P24666 whole entry): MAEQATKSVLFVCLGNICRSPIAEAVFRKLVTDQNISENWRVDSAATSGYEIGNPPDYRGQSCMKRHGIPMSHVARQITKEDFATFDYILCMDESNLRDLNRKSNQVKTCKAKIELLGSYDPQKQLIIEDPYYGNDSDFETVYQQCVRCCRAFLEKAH

[11] = target: T9, Carboxy-terminal domain RNA polymerase II polypeptide A small phosphatase 1 (Homo sapiens, UniProt Q9GZU7); test: CTDSP1 inhibitors, concentration-response, biochemical, absorbance readout, ultra-high-throughput screen actives (AID 540297); type: functional
T9 sequence (Q9GZU7 whole entry): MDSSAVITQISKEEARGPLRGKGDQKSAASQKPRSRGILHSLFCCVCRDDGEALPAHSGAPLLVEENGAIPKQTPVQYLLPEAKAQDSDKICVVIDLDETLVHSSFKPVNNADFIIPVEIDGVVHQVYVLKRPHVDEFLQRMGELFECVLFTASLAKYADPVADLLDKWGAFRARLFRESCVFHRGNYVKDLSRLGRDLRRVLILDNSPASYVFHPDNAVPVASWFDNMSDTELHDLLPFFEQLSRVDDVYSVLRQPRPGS

## COC/C=C/C1=CC2=CC(=O)C(C)(OC(=O)c3cnc4ccccc4n3)C(=O)C2=CN1Cc1ccccc1 (configuration not stated)
[1]
  IC50: 18.9 µM (active)
[2]
  IC50: 12.7 µM (active)

## Cc1nc2nc(SCC(=O)N3CCC4(CC3)OCCO4)nn2c(C)c1Cc1ccccc1
[3]
  AC50: 2.82 µM (active)

## CC(=O)OCC(=O)[C@@]1(OC(C)=O)[C@@H](C)C[C@H]2[C@@H]3C[C@H](F)C4=CC(=O)C=C[C@]4(C)[C@@]3(F)[C@@H](O)C[C@@]21C [DIFLORASONE DIACETATE]
[3]
  AC50: 9.06 µM (active)

## O=[N+]([O-])c1cc(S(=O)(=O)N2CCCCCC2)ccc1F
[4]
  AC50: 3.09 µM (active)
[5]
  AC50: 9.53 µM (active)
[6]
  IC50: 1.53 µM (active)

## Oc1ccc(-c2[nH]ncc2-c2ccc(Cl)cc2)c(O)c1
[7]
  CC50: 100 µM (active)
[8]
  IC50: 90.8 µM (active)

## CC1=CC2=NC(=O)/C(=C\c3cc(C)n(-c4ccccc4F)c3C)C(=N)N2O1
[3]
  AC50: 0.247 µM (active)

## Cc1nn(-c2ccc(F)cc2)c(O)c1C(c1cccc(O)c1)c1c(C)[nH]n(-c2ccc(F)cc2)c1=O (configuration not stated)
[9]
  AC50: 1.06 µM (active)
Protein RecA
  EC50: 0.856 µM (active)
Genome polyprotein
  IC50: 55.5 µM (active)
[1]
  IC50: 14.6 µM (active)
[2]
  IC50: 12.2 µM (active)
Cytochrome P450 2D6
  AC50: 28.2 µM (inconclusive)
Cytochrome P450 1A2
  AC50: 25.1 µM (inconclusive)

## COc1ccc(CNc2nc(-c3ccccc3)nc3ccccc23)cc1OC
[10]
  IC50: 9.94 µM (active)

## COc1ccccc1-n1c(/C=C/c2ccc(O)cc2)nc2ccccc2c1=O
[7]
  CC50: 100 µM (active)
[8]
  IC50: 106 µM (active)

## O=c1c2cc(-c3ccccc3)sc2nc2n1N=C(c1cccs1)CS2
[11]
  IC50: 6.3 µM (active)
[10]
  IC50: 13.7 µM (active)
